Results from patent US8703961B2, “Thiazole derivatives for the treatment of diseases such as cancer” (Merck Patent GmbH, priority 2009, dated 2014).

Tests used:
Assay in all cases: filter binding kinase assay
Assay type in all cases: biochemical
IRAK4 = molecular target: T1, IRAK4 (Homo sapiens, UniProt Q9NWZ3); conditions: derived from % inhibition at 1 μM
T1 construct: purchased
T1 sequence (Q9NWZ3 1-460): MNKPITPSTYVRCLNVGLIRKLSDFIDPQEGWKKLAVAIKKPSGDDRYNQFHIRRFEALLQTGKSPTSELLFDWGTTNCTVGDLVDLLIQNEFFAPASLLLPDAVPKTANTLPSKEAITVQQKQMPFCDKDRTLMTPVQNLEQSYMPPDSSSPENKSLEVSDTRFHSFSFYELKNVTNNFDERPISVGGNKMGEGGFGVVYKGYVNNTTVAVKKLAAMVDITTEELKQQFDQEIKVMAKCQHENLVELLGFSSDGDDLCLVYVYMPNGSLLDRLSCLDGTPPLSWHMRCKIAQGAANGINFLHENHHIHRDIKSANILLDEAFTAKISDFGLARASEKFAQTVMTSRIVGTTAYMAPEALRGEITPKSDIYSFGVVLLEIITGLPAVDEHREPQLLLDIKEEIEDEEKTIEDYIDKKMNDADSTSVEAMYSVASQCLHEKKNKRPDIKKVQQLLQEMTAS
In short: (§1)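 Radioactivity retained on P81 phosphocellulose filters is the read-out. Before the reaction begins, test substance sits with kinase and substrate for 5 minutes at room temperature. The ATP solution added is 5, 20 or 50 […] according to the kinase, and acid quench ends the reaction.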

DYRK2 = molecular target: T2, DYRK2 (Homo sapiens, UniProt Q92630); conditions: derived from % inhibition at 1 μM
T2 construct: purchased
T2 sequence (Q92630 1-601): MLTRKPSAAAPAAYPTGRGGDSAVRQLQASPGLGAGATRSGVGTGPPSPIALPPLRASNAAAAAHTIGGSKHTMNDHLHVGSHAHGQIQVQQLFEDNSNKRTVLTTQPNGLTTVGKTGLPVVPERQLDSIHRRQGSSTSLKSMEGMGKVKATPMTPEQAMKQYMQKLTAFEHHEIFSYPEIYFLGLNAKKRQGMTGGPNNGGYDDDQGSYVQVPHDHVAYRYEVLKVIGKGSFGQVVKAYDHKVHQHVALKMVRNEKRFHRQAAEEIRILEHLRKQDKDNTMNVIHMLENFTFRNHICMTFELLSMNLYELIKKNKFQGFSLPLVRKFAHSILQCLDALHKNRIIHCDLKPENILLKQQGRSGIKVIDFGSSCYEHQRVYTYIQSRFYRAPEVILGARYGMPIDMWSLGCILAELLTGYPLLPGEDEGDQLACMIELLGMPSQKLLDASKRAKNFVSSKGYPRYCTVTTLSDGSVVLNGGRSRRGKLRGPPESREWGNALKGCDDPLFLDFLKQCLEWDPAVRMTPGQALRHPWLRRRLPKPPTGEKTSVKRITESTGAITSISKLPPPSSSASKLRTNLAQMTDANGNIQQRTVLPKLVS
In short: as §1

STK3 = molecular target: T3, STK3 (Homo sapiens, UniProt Q13188); conditions: derived from % inhibition at 1 μM
T3 construct: purchased
T3 sequence (Q13188 1-491): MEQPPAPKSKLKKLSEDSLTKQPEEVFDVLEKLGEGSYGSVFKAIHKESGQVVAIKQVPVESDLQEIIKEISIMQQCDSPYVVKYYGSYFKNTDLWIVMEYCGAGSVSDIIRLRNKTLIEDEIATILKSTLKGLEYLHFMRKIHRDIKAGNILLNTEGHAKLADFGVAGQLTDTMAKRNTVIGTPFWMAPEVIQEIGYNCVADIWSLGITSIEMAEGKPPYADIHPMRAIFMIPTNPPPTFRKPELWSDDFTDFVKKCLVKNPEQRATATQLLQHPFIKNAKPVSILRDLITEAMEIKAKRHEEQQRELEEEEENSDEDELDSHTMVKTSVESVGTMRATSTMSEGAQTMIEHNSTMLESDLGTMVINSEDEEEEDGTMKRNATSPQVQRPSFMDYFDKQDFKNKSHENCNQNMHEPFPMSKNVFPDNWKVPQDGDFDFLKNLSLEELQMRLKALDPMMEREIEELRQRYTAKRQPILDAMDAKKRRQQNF
In short: as §1

EEF2K = molecular target: T4, EEF2K (Homo sapiens, UniProt O00418); conditions: derived from % inhibition at 1 μM
T4 construct: purchased
In short: as §1

MAPK1 = molecular target: T5, MAPK1 (Homo sapiens, UniProt P28482); conditions: derived from % inhibition at 1 μM; first MAPK1 line
T5 construct: purchased
T5 sequence (P28482 whole entry, species assumed): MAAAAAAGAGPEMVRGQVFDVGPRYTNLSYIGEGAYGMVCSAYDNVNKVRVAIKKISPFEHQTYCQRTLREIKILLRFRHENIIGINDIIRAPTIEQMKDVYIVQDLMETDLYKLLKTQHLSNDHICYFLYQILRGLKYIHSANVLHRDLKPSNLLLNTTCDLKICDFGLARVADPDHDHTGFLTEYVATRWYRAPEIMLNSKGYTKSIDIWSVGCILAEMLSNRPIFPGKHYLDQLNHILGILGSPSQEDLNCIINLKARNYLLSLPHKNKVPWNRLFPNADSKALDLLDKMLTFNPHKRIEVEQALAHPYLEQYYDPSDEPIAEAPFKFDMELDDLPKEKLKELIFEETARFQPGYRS
In short: as §1

PRKD2 = molecular target: T6, PRKD2 (Homo sapiens, UniProt Q9BZL6); conditions: derived from % inhibition at 1 μM
T6 construct: purchased
T6 sequence (Q9BZL6 1-878): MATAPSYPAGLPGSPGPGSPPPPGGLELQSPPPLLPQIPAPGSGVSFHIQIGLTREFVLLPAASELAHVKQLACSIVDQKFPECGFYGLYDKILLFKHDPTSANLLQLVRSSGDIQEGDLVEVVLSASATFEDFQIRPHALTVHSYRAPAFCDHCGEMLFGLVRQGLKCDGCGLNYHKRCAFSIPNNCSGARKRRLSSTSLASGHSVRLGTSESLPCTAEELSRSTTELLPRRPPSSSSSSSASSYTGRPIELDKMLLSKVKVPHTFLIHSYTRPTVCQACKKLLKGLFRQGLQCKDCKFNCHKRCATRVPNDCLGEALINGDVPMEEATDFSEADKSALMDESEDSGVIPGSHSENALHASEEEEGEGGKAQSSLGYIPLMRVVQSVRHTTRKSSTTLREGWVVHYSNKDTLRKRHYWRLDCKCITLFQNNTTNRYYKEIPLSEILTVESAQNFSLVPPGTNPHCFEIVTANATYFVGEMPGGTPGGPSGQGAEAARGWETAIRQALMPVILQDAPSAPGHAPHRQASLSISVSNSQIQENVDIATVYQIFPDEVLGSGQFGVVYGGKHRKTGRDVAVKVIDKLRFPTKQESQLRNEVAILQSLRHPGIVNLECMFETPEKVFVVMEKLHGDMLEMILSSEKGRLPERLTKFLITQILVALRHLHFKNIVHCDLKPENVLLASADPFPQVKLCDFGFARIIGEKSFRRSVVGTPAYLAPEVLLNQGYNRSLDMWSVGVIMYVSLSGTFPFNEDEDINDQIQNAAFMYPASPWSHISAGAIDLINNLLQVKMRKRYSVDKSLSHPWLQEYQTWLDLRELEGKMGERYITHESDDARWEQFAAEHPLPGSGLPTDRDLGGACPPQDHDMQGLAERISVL
In short: as §1

PIM3 = molecular target: T7, PIM3 (Homo sapiens, UniProt Q86V86); conditions: derived from % inhibition at 1 μM
T7 construct: purchased
In short: as §1

In the case of `CC(C)(C)OC(=O)Nc1ncsc1C#CCN1C(=O)c2ccccc2C1=O` [Compound A26, tert-butyl{5-[3-(1,3-dioxo-1,3-dihydroisoindol-2-yl)prop-1-ynyl]-thiazol-4-yl}carbamate], the IC50 (IRAK4) is reported as 10 to 100 µM, the IC50 (DYRK2) is reported as greater than 1 µM and the IC50 (STK3) is reported as greater than 1 µM. For the same compound, the IC50 (EEF2K) was 10 to 100 µM, the IC50 (MAPK1) was 10 to 100 µM and the IC50 (PRKD2) was greater than 1 µM. For the same compound, the IC50 (PIM3) was greater than 1 µM.
`Nc1ncsc1C#Cc1cccc(O)c1` [Compound A27, 3-(4-aminothiazol-5-ylethynyl)phenol] gave an IC50 (IRAK4) of 10 to 100 µM, an IC50 (DYRK2) of 1 to 10 µM and an IC50 (STK3) of 1 to 10 µM. It also gave an IC50 (EEF2K) of 1 to 10 µM, an IC50 (MAPK1) of 1 to 10 µM and an IC50 (PRKD2) of 1 to 10 µM. The IC50 (PIM3) was 1 to 10 µM.
Work on `c1ccc(Cc2c[nH]c3ncsc23)cc1` [Compound A7, 6-benzyl-4H-pyrrolo[2,3-d]thiazole] yielded an IC50 (IRAK4) greater than 1 µM, an IC50 (DYRK2) greater than 1 µM and an IC50 (STK3) of 1 to 10 µM. For the same compound, the IC50 (EEF2K) was 10 to 100 µM, the IC50 (MAPK1) was greater than 1 µM and the IC50 (PRKD2) was 1 to 10 µM. For the same compound, the IC50 (PIM3) was 1 to 10 µM.
In the case of `CC(C)(C)OC(=O)Nc1nc(-c2ccncc2)sc1C#CCN1CCOCC1` [Compound A25, tert-butyl[5-(3-morpholin-4-ylprop-1-ynyl)-2-pyridin-4-ylthiazol-4-yl]-carbamate], the IC50 (IRAK4) is reported as 10 to 100 µM, the IC50 (DYRK2) is reported as greater than 1 µM and the IC50 (STK3) is reported as greater than 1 µM. For the same compound, the IC50 (EEF2K) was greater than 1 µM, the IC50 (MAPK1) was greater than 1 µM and the IC50 (PRKD2) was greater than 1 µM. The IC50 (PIM3) was greater than 1 µM.
`Nc1ncsc1C#Cc1cnc2[nH]ccc2c1` [Compound A22, 5-(1H-pyrrolo[2,3-b]pyridin-5-ylethynyl)thiazol-4-ylamine] gave an IC50 (IRAK4) greater than 1 µM, an IC50 (DYRK2) greater than 1 µM and an IC50 (STK3) of 10 to 100 µM. It also gave an IC50 (EEF2K) of 10 to 100 µM, an IC50 (MAPK1) of 10 to 100 µM and an IC50 (PRKD2) greater than 1 µM. The IC50 (PIM3) was 10 to 100 µM.
